Assay [1] deals with eIF4A-dependent translation. The assay is described as follows: in vitro translation assay, bicistronic FF/HCV/Ren reporter mRNA in Krebs-2 extracts. The class given is biochemical. Particulars: for IC50: bicistronic FF/HCV/Ren mRNA, FIG. 14/15, read-out: IC50, inhibition of cap-dependent translation (FF relative to REN); for inhibition of cap-dependent translation in vitro (in words): screen at 2 μM compound. How it is done:
Structure-Activity Relationships. With a number of amidino-rocaglates and amino-rocaglates in hand, we evaluated their inhibition of eIF4A-dependent translation using an in vitro assay as depicted in FIG. 14, where a bicistronic reporter mRNA was designed for translation in Krebs-2 extracts. In FIG. 14 the following description applies (a) IC50 was determined from fitted sigmoid curves; […] indicates the concentration of compound that inhibits cap-dependent translation by 50%, which was normalized by cap-independent translation. For its determination, the bicistronic reporter FF/HCV/Ren mRNA was used to produce Firefly luciferase (cap-dependent) and Renilla luciferase (cap-independent) in Krebs-2 extracts in the presence of indicated compounds at various concentrations. In particular, translation of Firefly luciferase (FF) is cap-dependent and depends on eIF4A activity; in contrast, translation of Renilla luciferase (REN) utilizes the HCV internal ribosome entry site (IRES) which functions independently of eIF4A. IC50's were determined by the inhibition of FF relative to REN obtained in the presence of compound relative to vehicle controls and normalized to REN as an internal control. […] In accordance with the eIF4A-RNA-rocaglamide (2) co-crystallographic analysis (FIG. 4), the amide carbonyl of 2 interacts with Gln195 of eIF4A as a H-bond acceptor, while the tertiary hydroxyl of 2 serves as a H-bond donor to an RNA base. […] To further verify the hypothesis, amidino-rocaglates (pKa of N—H˜26.7-30.7 in DMSO, strong H-bond donors) and amino-rocaglates (pKa of N—H˜36 to 44 in DMSO, weak H-bond donors) were next evaluated. […] Conversely, benzyl amidine 9e had IC50=60 nM, whereas the methylene tether may allow conformational adjustment to avoid rigid repulsion in the binding pocket.
The rocaglate collection was also tested in in vitro translation assays using cell-free extracts with a previously described bicistronic mRNA containing the HCV IRES, which is not dependent on eIF4A activity and served as an internal control (FIG. 19C).
(§1) In Vitro Translation Assays. In vitro translation assays performed in Krebs-2 cell extracts were supplemented with 5 mM MgCl2, 30 mM Tris-HCl (pH 7.5), 1.5 mM ATP, 0.1 mM GTP, 0.6 mM CTP, 10 mM dipotassium creatine phosphate, 80 μg/mL creatine kinase, and 0.04 mM amino acids. The specified mRNA reporters were added to each reaction at a final concentration of 10 ng/μL. The translation reactions were incubated with or without compound for 60 minutes at 30° C. prior to the measurement of luciferase activities.
FIGS. 19A-19C. Rocaglate activity profiling. 19A. Assessing eIF4A1:poly r(AG)8 (SEQ ID NO: 2) RNA binding by FP in the presence of 10 μM rocaglate. Values are expressed relative to vehicle controls and data is rank ordered. n=3±SD. 19B. The change in polarization obtained with eIF4A1:poly r(AG)8 (SEQ ID NO: 2) and eIF4A2:poly r(AG)8 (SEQ ID NO: 2) RNA. Pearson r=0.814; p<0.0001. 19C. Inhibition of cap-dependent translation by rocaglates was measured using the indicated mRNA bicistronic reporter (4 ng/ul) in Krebs-2 extracts at a final compound concentration of 2 μM. n=3±SD.
FIG. 35A-35E are plots showing dose-response curve of FF-HCV-Ren mRNA translation in Krebs extracts with IC50s shown for inhibition of cap-dependent protein synthesis. Values are plotted relative to DMSO controls. n=2 technical replicates performed in duplicate.

For assay [2], the system named is cap-dependent translation. The assay is described as follows: in vitro translation of (AG)10- and (UC)10-FF/HCV/Ren mRNA reporters in Krebs-2 extracts. Particulars: cap-proximal (AG)10 or (UC)10. The class given is biochemical. On the procedure: Rocaglates show differing mRNA targeting spectra in translation assays. The in vitro experiments described above investigating the rocaglate-mediated inhibition of cap-dependent translation were performed at a fixed rocaglate concentration (2 μM) using a generic bicistronic mRNA reporter in Krebs-2 cell-free translation extracts (FIG. 19C). To better assess the consequences of eIF4A:polypurine clamping on the initiation process, we designed a series of bicistronic reporters harboring cap-proximal polypurine tracks of varying lengths in their 5′ leader region (FIG. 22A). […] We reasoned that these reporters would provide a sensitized readout for rocaglate-induce clamping of eIF4A at this location.
We next tested the response of mRNA reporters containing cap-proximal (AG)10 or (UC)10 sequences (FIG. 22A). […] The difference in activity observed between CR-1-31-B (23) and silvestrol 1 was not restricted to cap-proximal polypurine tracks, but also observed with reporters where the polypurine/polypyrimidine tracks were situated 15 nt downstream from the cap (FIGS. 24A and 24B).
as §1
FIGS. 23A-23C. The presence of polypurines bases in mRNA 5′ leader regions are not universal predictors of rocaglate-responsiveness. FIG. 23A. Schematic diagram of FF/HCV/Ren mRNA reporters containing cap-proximal (AG) or (UC) dinucleotide repeats. 23B. Firefly and renilla luciferase activity in response to the indicated CR-1-31-B (23) concentrations (relative to DMSO controls) in Krebs-2 extracts programmed with 4 ng/uL of the indicated mRNAs. n=3±SD. 23C. Dose response of the indicated compounds in Krebs-2 extracts programmed with 4 ng/μL of the indicated mRNAs. n=3± SD.
FIG. 23. Dose-response of (AG)10- and (UC)10-FF/HCV/Ren mRNAs to CMLD011167, hippuristanol and pateamine A in vitro. Firefly and renilla luciferase activity in response to the indicated compound concentrations (relative to DMSO controls) in Krebs-2 extracts programmed with 4 ng/μL of the indicated mRNAs. n=3± SD.

Results on four compounds are retold here after patent US11279708B2, “Amidino- and amino-rocaglates as novel translation inhibitors and anticancer agents” (priority 2019, dated 2022).

On to `COC(=O)[C@@H]1[C@@H](c2ccccc2)[C@]2(c3ccc(OC)cc3)Oc3cc(OC)cc(OC)c3[C@@]23N=C(C)N[C@@]13O` [9b], for which, in assay [1], the IC50 (as a rule, the concentration at which inhibition is half-maximal) came out at 189 nM and the “inhibition of cap-dependent translation in vitro (in words)” value is listed as “comparable potency to SDS-1-021”. Further, in assay [2], the “inhibition of (AG)10 versus (UC)10 reporter in vitro (in words)” value (“inhibition of (AG)10 versus” below) is “equally inhibited translation of both (AG)10 and (UC)10 reporters”.

Take `CONC(=O)[C@H]1[C@@H](O)[C@@]2(O)c3c(OC)cc(OC)cc3O[C@@]2(c2ccc(OC)cc2)[C@@H]1c1ccccc1` [CR-1-31-B]: the IC50 in assay [1] came out at 272 nM. Also, the “inhibition of (AG)10 versus” value in assay [2] is listed as “inhibited cap-dependent translation (FLuc) from only the (AG)10-containing mRNA”.

As for `COc1ccc([C@@]23Oc4cc(OC)cc(OC)c4[C@]2(O)[C@H](O)[C@H](C(=O)N(C)C)[C@H]3c2ccccc2)cc1` [RocA, rocaglamide A], the “inhibition of (AG)10 versus” value in assay [2] is given as “inhibited cap-dependent translation (FLuc) from only the (AG)10-containing mRNA”.

Regarding `COC(=O)[C@H]1[C@@H](O)[C@@]2(O)c3c(OC)cc(O[C@@H]4O[C@@H]([C@H](O)CO)CO[C@H]4OC)cc3O[C@@]2(c2ccc(OC)cc2)[C@@H]1c1ccccc1` [silvestrol], in assay [1], the “inhibition of cap-dependent translation in vitro (in words)” value is given as “potently inhibit cap-dependent translation”. Moreover, the “inhibition of (AG)10 versus” value in assay [2] is listed as “equally inhibited both mRNA reporters”.
